pIC50: −log10 of the molar value.

This assay deals with IL-1β. Nature of the assay: In vitro IL-1β inhibition in PMA-differentiated, LPS-primed, ATP-stimulated THP1 cells. The note with it: Homo sapiens, THP-1; THP1 monocytes differentiated with PMA, primed with 500 ng/ml LPS 4 hrs, compound 30 min, 5 mM ATP 1 hr; IL-1b in supernatant; read-out: in vitro IL-1β inhibitory activity IC50. The format is cell-based. As for the experimental part:
THP1 ([…]) monocytes were differentiated with PMA (Phorbol 12-myristate 13-acetate) (100 ng/ml) and incubated at 37° C. for 20 h in presence of 5% CO2. 2×10^5 differentiated cells were plated per well of 96 well tissue culture plates. The cells were primed using 500 ng/ml Lipopolysaccharide and incubating for 4 hrs under the same condition. The cells were then treated with various concentrations of the compounds for 30 min followed by treatment with 5 mM ATP for 1 hr. The supernatants were collected and analysed by IL-1b (Mabtech Cat #3415-1H-20) or TNF-a (Mabtech; Cat #3510-1H-20) detection kit. The data were analyzed using GraphPad Prism V7.0. Dose Response Curve (DRC) was constructed to determine the IC50 value by fitting percentage cell survival data to the GraphPad Prism using nonlinear regression analysis.
By pIC50 is commonly meant −log10 of the IC50, conventionally taken in molar units. In the case of `COc1ccc(S(=O)(=NC#N)NC(=O)Nc2c3c(cc4c2CCC4)CCC3)cc1OC` (centres unmarked) [Example 52, N′-cyano-N-((1,2,3,5,6,7-hexahydro-s-indacen-4-yl)carbamoyl)-3,4-dimethoxybenzene-sulfonimidamide], the pIC50 was 8.36.

With `CC(C)(O)c1ccc(S(=O)(=NC#N)NC(=O)Nc2c3c(cc4c2CCC4)CCC3)cc1` (centres unmarked) [Example 17, N′-cyano-N-((1,2,3,5,6,7-hexahydro-s-indacen-4-yl)carbamoyl)-4-(2-hydroxypropan-2-yl)benzenesulfonimidamide], the negative-log IC50 (pIC50) is 7.92.

`N#CN=S(=O)(Cc1ccccc1)NC(=O)Nc1c2c(cc3c1CCC3)CCC2` (centres unmarked) [Example 48, N′-cyano-N-((1,2,3,5,6,7-hexahydro-s-indacen-4-yl)carbamoyl)-1-phenylmethanesulfonimidamide]: the pIC50 is 8.46. The same measure for `N#CN=S(=O)(NC(=O)Nc1c2c(cc3c1CCC3)CCC2)c1ccc(Cl)cc1` (centres unmarked) [Example 26, 4-chloro-N′-cyano-N-((1,2,3,5,6,7-hexahydro-s-indacen-4-yl)carbamoyl)benzenesulfonimidamide]: 7.64. The result for `N#CN=S(=O)(NC(=O)Nc1c2c(cc3c1CCC3)CCC2)c1cccc(C(O)(C(F)(F)F)C(F)(F)F)c1` (centres unmarked) [Example 43, N′-cyano-3-(1,1,1,3,3,3-hexafluoro-2-hydroxypropan-2-yl)-N-((1,2,3,5,6,7-hexahydro-s-indacen-4-yl)carbamoyl)benzenesulfonimidamide] reads 7.57; that for `N#CN=S(=O)(NC(=O)Nc1c2c(cc3c1CCC3)CCC2)c1cccc(F)c1` (centres unmarked) [Example 58, N′-cyano-3-fluoro-N-((1,2,3,5,6,7-hexahydro-s-indacen-4-yl)carbamoyl)benzenesulfonimidamide], 7.42. The same measure for `COc1ccc(S(=O)(=NC#N)NC(=O)Nc2c3c(cc4c2CCC4)CCC3)cn1` (centres unmarked) [Example 24, N′-cyano-N-((1,2,3,5,6,7-hexahydro-s-indacen-4-yl)carbamoyl)-6-methoxypyridine-3-sulfonimidamide]: 7.47; for `N#CN=S(=O)(NC(=O)Nc1c2c(cc3c1CCC3)CCC2)c1ccc(C(F)(F)F)cc1` (centres unmarked) [Example 29, N′-cyano-N-((1,2,3,5,6,7-hexahydro-s-indacen-4-yl)carbamoyl)-4-(trifluoromethyl)-benzenesulfonimidamide]: 7.49. Take `CC(C)(O)c1ccc(F)c(S(=O)(=NC#N)NC(=O)Nc2c3c(cc4c2CCC4)CCC3)c1` (centres unmarked) [Example 64, N′-cyano-2-fluoro-N-((1,2,3,5,6,7-hexahydro-s-indacen-4-yl)carbamoyl)-5-(2-hydroxypropan-2-yl)benzenesulfonimidamide]: the pIC50 is 8.11. Take `N#CN=S(=O)(NC(=O)Nc1c2c(cc3c1CCC3)CCC2)c1ccc2c(c1)OCCO2` (centres unmarked) [Example 40, N′-cyano-N-((1,2,3,5,6,7-hexahydro-s-indacen-4-yl)carbamoyl)-2,3-dihydrobenzo[b][1,4]dioxine-6-sulfonimidamide]: the pIC50 was 7.89. Turning to `CC(C)(O)c1cncc(S(=O)(=NC#N)NC(=O)Nc2c3c(cc4c2CCC4)CCC3)c1` (centres unmarked) [Example 65, N′-cyano-N-((1,2,3,5,6,7-hexahydro-s-indacen-4-yl)carbamoyl)-5-(2-hydroxypropan-2-yl)pyridine-3-sulfonimidamide], the pIC50 was 8.90. The same measure for `N#CN=S(=O)(NC(=O)Nc1c2c(cc3c1CCC3)CCC2)c1ccc(C2(O)COC2)cc1` (centres unmarked) [Example 35, N′-cyano-N-((1,2,3,5,6,7-hexahydro-s-indacen-4-yl)carbamoyl)-4-(3-hydroxyoxetan-3-yl)benzenesulfonimidamide]: 7.89; for `N#CN=S(=O)(NC(=O)Nc1c2c(cc3c1CCC3)CCC2)c1cccc([N+](=O)[O-])c1` (centres unmarked) [Example 18, N′-cyano-N-((1,2,3,5,6,7-hexahydro-s-indacen-4-yl)carbamoyl)-3-nitrobenzenesulfonimidamide]: 7.82. The same measure for `CC(C)(O)c1ccc(S(=O)(=NC#N)NC(=O)Nc2c3c(cc4c2CCC4)CCC3)s1` (centres unmarked) [Example 41, N′-cyano-N-((1,2,3,5,6,7-hexahydro-s-indacen-4-yl)carbamoyl)-5-(2-hydroxypropan-2-yl)thiophene-2-sulfonimidamide]: 8.32; for `N#CN=S(=O)(NC(=O)Nc1c2c(cc3c1CCC3)CCC2)c1cccs1` (centres unmarked) [Example 51, N′-cyano-N-((1,2,3,5,6,7-hexahydro-s-indacen-4-yl)carbamoyl)thiophene-2-sulfonimidamide]: 7.72. The same measure for `CC(C)(O)c1cc(S(=O)(=NC#N)NC(=O)Nc2c3c(cc4c2CCC4)CCC3)ccc1F` (centres unmarked) [Example 63, N′-cyano-4-fluoro-N-((1,2,3,5,6,7-hexahydro-s-indacen-4-yl)carbamoyl)-3-(2-hydroxypropan-2-yl)benzenesulfonimidamide]: 8.11; for `N#CN=S(=O)(NC(=O)Nc1c2c(cc3c1CCC3)CCC2)c1ccc(Br)s1` (centres unmarked) [Example 37, 5-bromo-N′-cyano-N-((1,2,3,5,6,7-hexahydro-s-indacen-4-yl)carbamoyl)thiophene-2-sulfonimidamide]: 8.25. `N#CN=S(=O)(NC(=O)Nc1c2c(cc3c1CCC3)CCC2)c1cc(F)cc(F)c1` (centres unmarked) [Example 44, N′-cyano-3,5-difluoro-N-((1,2,3,5,6,7-hexahydro-s-indacen-4-yl)carbamoyl)benzenesulfonimidamide]: the pIC50 was 7.20.

As for `CC(C)(O)c1coc(S(=O)(=NC#N)NC(=O)Nc2c3c(cc4c2CCC4)CCC3)c1` (centres unmarked) [Example 39, N′-cyano-N-((1,2,3,5,6,7-hexahydro-s-indacen-4-yl)carbamoyl)-4-(2-hydroxypropan-2-yl)furan-2-sulfonimidamide], the pIC50 was 8.48. The same measure for `N#CN=S(=O)(NC(=O)Nc1c2c(cc3c1CCC3)CCC2)c1ccc(F)cc1` (centres unmarked) [Example 21, N′-cyano-4-fluoro-N-((1,2,3,5,6,7-hexahydro-s-indacen-4-yl)carbamoyl)benzenesulfonimidamide]: 7.21. The same measure for `CC(C)(O)c1cccc(S(=O)(=NC#N)NC(=O)Nc2c3c(cc4c2CCC4)CCC3)c1` (centres unmarked) [Example 34, N′-cyano-N-((1,2,3,5,6,7-hexahydro-s-indacen-4-yl)carbamoyl)-3-(2-hydroxypropan-2-yl)benzenesulfonimidamide]: 8.52; for `Cc1cccc(S(=O)(=NC#N)NC(=O)Nc2c3c(cc4c2CCC4)CCC3)n1` (centres unmarked) [Example 53, N′-cyano-N-((1,2,3,5,6,7-hexahydro-s-indacen-4-yl)carbamoyl)-6-methylpyridine-2-sulfonimidamide]: 7.35. The same measure for `Cc1ccc(F)c(S(=O)(=NC#N)NC(=O)Nc2c3c(cc4c2CCC4)CCC3)c1` (centres unmarked) [Example 42, N′-cyano-2-fluoro-N-((1,2,3,5,6,7-hexahydro-s-indacen-4-yl)carbamoyl)-5-methylbenzene-sulfonimidamide]: 8.62; for `N#CN=S(=O)(NC(=O)Nc1c2c(cc3c1CCC3)CCC2)c1ccc(Br)cc1` (centres unmarked) [Example 27, 4-bromo-N′-cyano-N-((1,2,3,5,6,7-hexahydro-s-indacen-4-yl)carbamoyl)benzenesulfonimidamide]: 7.57. `COc1ccc(S(=O)(=NC#N)NC(=O)Nc2c3c(cc4c2CCC4)CCC3)cc1` (centres unmarked) [Example 19, N′-cyano-N-((1,2,3,5,6,7-hexahydro-s-indacen-4-yl)carbamoyl)-4-methoxybenzenesulfonimidamide]: the pIC50 is 7.64.

On to `N#CN=S(=O)(NC(=O)Nc1c2c(cc3c1CCC3)CCC2)c1ccc(F)cc1F` (centres unmarked) [Example 45, N′-cyano-2,4-difluoro-N-((1,2,3,5,6,7-hexahydro-s-indacen-4-yl)carbamoyl)benzenesulfonimidamide], for which the pIC50 is 7.64. The result for `N#CN=S(=O)(Cc1ccc(C#N)cc1)NC(=O)Nc1c2c(cc3c1CCC3)CCC2` (centres unmarked) [Example 66, N′-cyano-1-(4-cyanophenyl)-N-((1,2,3,5,6,7-hexahydro-s-indacen-4-yl)carbamoyl)-methanesulfonimidamide] reads 8.40; that for `C=C(C)c1coc(S(=O)(=NC#N)NC(=O)Nc2c3c(cc4c2CCC4)CCC3)c1` (centres unmarked) [Example 36, N′-cyano-N-((1,2,3,5,6,7-hexahydro-s-indacen-4-yl)carbamoyl)-4-(prop-1-en-2-yl)furan-2-sulfonimidamide], 7.49; that for `COc1cccc(S(=O)(=NC#N)NC(=O)Nc2c3c(cc4c2CCC4)CCC3)c1` (centres unmarked) [Example 38, N′-cyano-N-((1,2,3,5,6,7-hexahydro-s-indacen-4-yl)carbamoyl)-3-methoxybenzenesulfonimidamide], 7.77.

For the origin of these results see US11236045B2, “Substituted sulfoximine compounds” (CADILA HEALTHCARE LIMITED, priority 2017, dated 2022).
